One may read the inhibition as the change of the read-out against control, counted positive when it falls.

SMILES strings stand for the structures. Converted amounts (≈) assume the structure as drawn. Where two headings read alike, the source gives them in different places.

Assay [1] has as its system human umbilical-vein endothelial cells (HUVEC). Put plainly: Cell Proliferation Assay (CPA) Test, HUVEC, MTT. Conditions: Homo sapiens, M199 (2+) medium, read-out: CPA (IC50 μg/ml). In kind it is cell-based. The procedure: (§1) Furthermore, the sample liquids of compounds used in the CPA and CMA tests were prepared in the manner described below. Firstly, after weighing out each compound, a calculated amount of DMSO was added. After dissolving the compound in the DMSO, phosphate buffered physiological saline (PBS (-)) was added to bring the sample concentration to 1 mg/ml in PBS (-). The amount of DMSO used to dissolve the compounds was adjusted in advance to that the concentration of DMSO at that time was 5%. The resulting liquids were diluted 10-fold with 5% DMSO-PBS (-) solution to prepare sample solutions having a concentration of 0.1 mg/ml. In the TFA test, 320 μl of the prepared 1 mg/ml sample solutions were removed followed by addition of 680 μl of PBS (-) to prepare samples having a concentration of […]. Moreover, 100 μl of this solution was removed followed by addition of 900 μl of PBS (-) to dilute 10-fold and prepare samples having a concentration of 1 μg/ml. P [Cell Proliferation Assay (CPA) Test]
100 μl of the 7th subculture obtained from first generation human umbilical-vein endothelial cells (HUVEC) were disseminated in the wells (N=3) of a 96-well plate (Iwaki, Cat. #4860-010) at a cell concentration of 5×10^4 cells/ml. M-199 medium containing +20% FCS, 10 ng/ml of b-FGF and 10 ng/ml of EGF (abbreviated as "M199 (2+)") was used for the medium.
After culturing for 24 hours at 37° C. in the presence of 5% CO2 under the above conditions, 20 μl/well of MTT solution (solution containing 5 mg/ml of PBS (-)) were added to the control well followed by accurately culturing for 4 hours at 37° C. in the presence of 5% CO2. Following completion of culturing, 100 μl/well of a stop solution (0.001 N aqueous HCl solution containing 10% SDS) were added. On the other hand, 10 μl/well of sample solutions at concentrations of 1 mg/ml and 0.1 mg/ml were added to the other wells.
After culturing for 24 hours at 37° C. in the presence of 5% CO2, the medium was replaced and 100 μl/well of M199 (2+) were added. The samples were also replaced in each well at this time.
Moreover, after additionally culturing for 48 hours at 37° C. in the presence of 5% CO2, 20 μl/well of MTT solution were added to the wells containing sample and the control well followed by accurately culturing for 4 hours at 37° C. and adding 100 μl/well of stop solution.

For assay [2] the test system is unchanged. Briefly: Cell Migration Assay (CMA) Test, HUVEC (% relative to control). Conditions: Homo sapiens, HUVEC. The assay is classed as cell-based. The procedure:
as §1
After disseminating the 7th subculture of HUVEC obtained from the first generation in the same manner as above at 4 ml/well (3.0×10^5 cells/well) in a collagen-coated 6-well plate (NUNC), the cells were cultured for 48 hours at 37° C. in the presence of 5% CO2. The cells reached nearly a completely confluent state as a result of this culturing.
A double-edged, disposable razor blade was divided into four sections, of which one of those sections was pinched between a pair of forceps. Using this piece of razor blade, the cell surface in the above confluent state was scraped off. Two areas of the cell surface were scraped off in each well.
After washing the surface of the wells from which the cells had been scraped off with medium, 4.0 ml of fresh M199 (2+) medium were added followed by addition of 40 μl or 4 μl of sample solution (1 mg/ml). The cells were cultured for 24 hours at 37° C. in the presence of 5% CO2. After discarding the culture liquid, the cells were fixed for 30 minutes with methanol. Next, after staining the cells for 4 hours with Giemsa stain, the plates were washed with tap water and air dried.
Measurement of cell migration was performed by microscopically counting the number of cells that had newly migrated within the range of a 1 mm×1 mm block. […] The total number of cells counted in blocks 1 through 5 were then totaled to determine the overall total number of cells. Four fields were counted for each well.
Evaluation was performed determining the cell migration (%) according to the following formula.
Cell migration rate=number of migrating cells to which sample was added×100/number of migrating of control (+)
Control (+) indicates the number of migrating cells in the control well containing M199 (2+).

The test system is the same in assay [3]. Put plainly: Tube Formation Assay (TFA) Test, HUVEC in collagen gel. Conditions: Homo sapiens, HUVEC; for inhibition at 1 µg/mL / inhibition at 10 µg/mL: 20 h, read-out: TFA (inhibition rate, %); for inhibition at 320 µM (stock): Tables 75-83, 0.32 mM sample solution, method as for Compounds 1 through 60, read-out: TFA Inhibition rate (%). In kind it is cell-based. Put shortly: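 HUVEC (7th subculture, 1×10^5 cells/ml) attached to collagen gel for 2 h at 37 °C, given sample and overlaid with collagen, then cultured 20 h at 37 °C, 5% CO2 in M-199 with 20% FCS, 30 ng/ml b-FGF and 0.1 μM PMA. Tube length measured by image analysis; % inhibition relative to positive and negative controls.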

For another assay, the system named is HUFEC. Put plainly: Cell Migration Assay (CMA) Test, inhibitory rate with control (-) correction. Conditions: Homo sapiens, 24 h, 125 μl of 0.32 mM sample solution in 4.0 ml medium, 80% or more = remarkable. The assay is classed as cell-based, human. Put shortly:
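Confluent HUFEC monolayers were scratch-wounded, then cultured 24 h at 37 °C, 5% CO2 in M199 (2+) medium with compound added as 125 μl of a 0.32 mM solution (3.2% DMSO) per 4 ml. Giemsa-stained cells migrating into 1 mm×1 mm blocks counted; inhibition % calculated relative to control (+) and control (−) wells.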

Setting [4] is: 1 μg/ml, 24 hours, 60% or less = remarkable inhibition, read-out: CMA (% relative to control).
The mark [5] stands for this setting: 10 μg/ml, 24 hours, 60% or less = remarkable inhibition, read-out: CMA (% relative to control).
The mark [6] stands for this setting: 1 μg/ml, 20 hours, 40% or less judged remarkable.
Setting [7] is: 10 μg/ml, 20 hours, 40% or less judged remarkable.

In the case of `COC(=O)C1=CO[C@@H](OC(=O)N2CCOCC2)[C@@H]2[C@@H]1C[C@@H]1O[C@]21C` [compound 38, (1S,4aS,6S,7R,7aR)-6,7-epoxy-1,4a,5,6,7,7a-hexahydro-7-methyl-1-(morpholinocarbonyloxy) cyclopenta [c] pyrane-4-carboxylic acid methylester], in assay [1], the IC50 was over 100 µg/mL. In addition, the activity at 1 µg/mL in assay [2] (setting [4]) stood at 92.3%. Also, the activity at 10 µg/mL in assay [2] (setting [5]) worked out at 61.8%. In addition, the inhibition at 1 µg/mL in assay [3] (setting [6]) was determined as 15.3%. For the same compound, the inhibition at 10 µg/mL in assay [3] (setting [7]) was -10%.

Take `CNC(=O)O[C@@H]1OC=C(C(=O)O)[C@H]2C[C@@H]3O[C@]3(C)[C@H]12` [compound 1, (1S,4aS,6S,7R,7aR)-6,7-epoxy-1,4a,5,6,7,7a-hexahydro-7-methyl-1-(methylcarbamoyloxy) cyclopenta [c]-pyrane-4-carboxylic acid]: the IC50 in assay [1] is over 100 µg/mL. Moreover, the activity at 1 µg/mL in assay [2] (setting [4]) worked out at 98.5%. For the same compound, in assay [2] (setting [5]), the activity at 10 µg/mL is 93.5%. For the same compound, in assay [3] (setting [6]), the inhibition at 1 µg/mL is 49.8%. Also, the inhibition at 10 µg/mL in assay [3] (setting [7]) was 37.8%.

Take `CO[C@@H]1[C@H](OC(=O)/C=C/C=C/C=C/C=C/C(=O)O)CC[C@]2(CO2)[C@H]1[C@@]1(C)O[C@@H]1CC=C(C)C` [Fumagilline, reference compound]: the IC50 in assay [1] was found to be 33.3 µg/mL (≈ 72.6 µM). For the same compound, the activity at 1 µg/mL in assay [2] (setting [4]) came out at 95.5%. In addition, the activity at 10 µg/mL in assay [2] (setting [5]) amounted to 74.2%.

In the case of `CCCCCCNC(=O)O[C@@H]1OC=C(C(=O)OC)[C@H]2C[C@@H]3O[C@]3(C)[C@H]12` [compound 33, (1S,4aS,6S,7R,7aR)-6,7-epoxy-1-(n-hexylcarbamoyloxy)-1,4a,5,6,7,7a-hexahydro-7-methylcyclopenta [c] pyrane-4-carboxylic acid methylester], the IC50 in assay [1] was over 100 µg/mL. In assay [2] (setting [4]), the activity at 1 µg/mL was determined as 109%. For the same compound, in assay [2] (setting [5]), the activity at 10 µg/mL worked out at 102%.

On to `CNC(=O)O[C@@H]1OC=C(C(=O)O)[C@H]2C[C@@H]3O[C@]3(C)[C@H]12` [compound 2, sodium (1S,4aS,6S,7R,7aR)-6,7-epoxy-1,4a,5,6,7,7a-hexahydro-7-methyl-1-(methylcarbamoyloxy) cyclopenta [c]-pyrane-4-carboxylic acid], for which, in assay [2] (24 h, read-out: CMA (% relative to control), 1 μg/ml, 60% or less = remarkable inhibition), the activity at 1 µg/mL is 88.4%. Moreover, in assay [2] (24 h, read-out: CMA (% relative to control), 10 μg/ml, 60% or less = remarkable inhibition), the activity at 10 µg/mL came to 95.8%. Further, in assay [3], the inhibition at 1 µg/mL came out at 69.1% and the inhibition at 10 µg/mL was 56.9%.

`CNC(=O)O[C@@H]1OC=C(C(=O)NC)[C@H]2C[C@@H]3O[C@]3(C)[C@H]12` [compound 15, (1S,4aS,6S,7R,7aR)-6,7-epoxy-1,4a,5,6,7,7a-hexahydro-7-methyl-1-(methylcarbamoyloxy) cyclopenta [c]-pyrane-4-carboxylic acid methylamide]: the IC50 in assay [1] is over 100 µg/mL. Besides, the activity at 1 µg/mL in assay [2] (setting [4]) worked out at 71.1%. Further, the activity at 10 µg/mL in assay [2] (setting [5]) is 58.3%. The inhibition at 1 µg/mL in assay [3] (setting [6]) is -16%. In addition, the inhibition at 10 µg/mL in assay [3] (setting [7]) was -8%.

Regarding `CNC(=O)O[C@@H]1OC=C(C(=O)OC)[C@H]2C[C@@H]3OC3(COC)C12` (stereo in doubt) [compound 49, (1S,4aS,6S,7R,7aR)-6,7-epoxy-7-(methoxymethyl)-1-(methylcarbamoyloxy)-1,4a,5,6,7,7a-hexahydrocyclopenta [c] pyrane-4-carboxylic acid methylester], in assay [1], the IC50 is over 100 µg/mL. The activity at 1 µg/mL in assay [2] (setting [4]) came to 102%. Also, in assay [2] (setting [5]), the activity at 10 µg/mL is 104%. Moreover, in assay [3] (setting [6]), the inhibition at 1 µg/mL came to 21.2%. Moreover, in assay [3] (setting [7]), the inhibition at 10 µg/mL was 12.8%.

As for `COC(=O)C1=COC(OC(=O)N(C)C)C2C1CC1OC12C` (stereo not drawn) [compound 31], the IC50 in assay [1] was over 100 µg/mL. Also, the activity at 1 µg/mL in assay [2] (setting [4]) turned out to be 97.2%. The activity at 10 µg/mL in assay [2] (setting [5]) turned out to be 107%. For the same compound, the inhibition at 1 µg/mL in assay [3] (setting [6]) is 15.2%. For the same compound, the inhibition at 10 µg/mL in assay [3] (setting [7]) was 26.5%.

Consider `C=CCOC(=O)C1=CO[C@@H](OC(=O)NC)[C@@H]2[C@@H]1C[C@@H]1O[C@]21C` [compound 9, (1S,4aS,6S,7R,7aR)-6,7-epoxy-1,4a,5,6,7,7a-hexahydro-7-methyl-1-(methylcarbamoyloxy) cyclopenta [c]-pyrane-4-carboxylic acid allylester], for which the IC50 in assay [1] is over 100 µg/mL. Besides, the activity at 1 µg/mL in assay [2] (setting [4]) was determined as 111%. In assay [2] (setting [5]), the activity at 10 µg/mL worked out at 116%. Besides, the inhibition at 1 µg/mL in assay [3] (setting [6]) amounted to 11%. Further, the inhibition at 10 µg/mL in assay [3] (setting [7]) amounted to 16.5%.

For the compound `CN(C)c1ccc(O)c2c1C[C@H]1C[C@H]3[C@H](N(C)C)C(O)=C(C(N)=O)C(=O)[C@@]3(O)C(O)=C1C2=O` [Minocycline, reference compound], the activity at 1 µg/mL in assay [2] (setting [4]) came to 67.3%. Moreover, the activity at 10 µg/mL in assay [2] (setting [5]) is 51.6%. Also, in assay [3] (setting [6]), the inhibition at 1 µg/mL was 42.1%. In assay [3] (setting [7]), the inhibition at 10 µg/mL was 56.7%.

For the compound `COC(=O)C1=CO[C@@H](OC(=O)NCc2cccc(C(F)(F)F)c2)[C@@H]2C(C)=CC[C@H]12` [I-128], the inhibition at 320 µM (stock) in assay [3] worked out at 9.4%; in the assay with HUFEC, 8.7%.

Consider `COC(=O)C1=CO[C@@H](OC(=O)NCc2ccc(Cl)c(Cl)c2)[C@@H]2C(C)=CC[C@H]12` [I-74], for which the inhibition at 320 µM (stock) in assay [3] is 5.8%; in the assay with HUFEC, 23.4%.

On to `COC(=O)C1=CO[C@@H](OC(=O)NCc2nc3ccccc3[nH]2)[C@@H]2C(C)=CC[C@H]12` [I-131], for which the inhibition at 320 µM (stock) in assay [3] was found to be 7.2%; in the assay on HUFEC, 19.5%.

`COC(=O)C1=CO[C@@H](OC(=O)NC2CC2)[C@@H]2C(C)=CC[C@H]12` [I-113]: the inhibition at 320 µM (stock) came out at 7.9% in assay [3] and 34.4% in the assay with HUFEC.

Take `COC(=O)C1=CO[C@@H](OC(=O)NCCc2ccc(F)cc2)[C@H]2[C@@H]1CC[C@@H]2C` [I-212]: the inhibition at 320 µM (stock) stood at 7.8% in assay [3] and 21.5% in the assay with HUFEC.

For the origin of these results see patent publication US6225478A, “Iridoid derivatives and neovascularization inhibitors containing the same as active ingredient” (Tsumura & Co., priority 1999, dated 2001).
